# From ChEMBL document CHEMBL5661943, “ASAP - In vitro antiviral effect” (2024)
# Values joined by “and” are separate entries in the source; they are usually repeats but may differ in a detail not shown here. Equal values may be shown once.
# Assays:
# [1] = system: dengue virus type 2; assay: Functional assay to measure dose dependent changes in antiviral-drug inhibitory efficacy against Dengue virus type 2 New Guinea C in Vero E6 miRFP670 cells (cotreated with P-gp inhibitor, CP100356). Cells are treated with antiviral candidates that are serially diluted, following infection, cells are fixed. EC50 is reported via analysis of fluorescence intensity using high-content imager. The …; type: organism-based, Chlorocebus sabaeus, Vero C1008; conditions: for EC90: P-gp concentration 500 nM, P-gp inhibitor CP100356
# [2] = system: Zika virus; assay: (§1) Functional CPE-based assay to measure dose dependent changes in antiviral-drug inhibitory efficacy against Zika virus MR766 in Vero E6 miRFP670 cells (cotreated with P-gp inhibitor, CP100356). Cells are treated with antiviral candidates that are serially diluted. EC50 is reported via analysis of MTS assay as a readout of CPE. The assay has been performed by KU Leuven.; type: organism-based, Chlorocebus sabaeus, Vero C1008; conditions: for EC90: P-gp concentration 500 nM, P-gp inhibitor CP100356
# [3] = system: Zika virus; assay: as §1, with “cells.” for “cells (cotreated with P-gp inhibitor, CP100356).”; type: organism-based, Chlorocebus sabaeus, Vero C1008
# [4] = system: Zika virus; assay: EC50 is reported via analysis of immunofluorescence staining. The assay has been performed by Icahn School of Medicine at Mount Sinai.; type: functional, organism-based, Chlorocebus sabaeus, VeroE6/TMPRSS2; conditions: Zika virus; for EC90: P-gp concentration 2 uM, P-gp inhibitor Elacidar
# [5] = system: dengue virus type 2; assay: Functional immunofluorescence assay to measure dose dependent changes in antiviral-drug inhibitory efficacy against Dengue virus type 2 Thailand/16681/84 in Vero E6/TMPRSS2 cells (cotreated with P-gp inhibitor, Elacridar). Cells are treated with antiviral candidates that are serially diluted, following infection, cells are fixed. EC50 is reported via analysis of immunofluorescence staining. The assay has been performed by Icahn School of Medicine at Mount Sinai.; type: organism-based, Chlorocebus sabaeus, VeroE6/TMPRSS2; conditions: Dengue virus
smiles,measurement,setting,value
CC(C)NC(=O)[C@H](Nc1ccc2c(c1)CNC2)c1cc(Cl)cc2[nH]ncc12,EC90,"[1]; Dengue virus, Vero C1008, Maximum measured 125.719 %, Minimum measured 102.313 %",> 50 µM
same,EC90,"[1]; Dengue virus, Vero C1008, Maximum measured 136.006 %, Minimum measured 106.773 %",> 50 µM
same,EC90,"[1]; Dengue virus, Vero C1008, Maximum measured 137.073 %, Minimum measured 93.467 %",> 50 µM
same,EC90,"[1]; Dengue virus, Vero C1008, Baseline response 0 %, Hill slope 0.455, Maximum measured 96.007 %, Maximum response 100 %, Minimum measured 82.569 %, R squared 0.098",> 6.25 µM
same,EC50,[1]; vero c1008,> 50 µM
same,EC90,"[2]; Baseline response 0 %, Hill slope 0.274, Maximum measured 19.104 %, Maximum response 100 %, Minimum measured -8.849 %, R squared 0.058",> 50 µM
same,EC90,"[2]; Baseline response 0 %, Hill slope 0.987, Maximum measured 78.474 %, Maximum response 100 %, Minimum measured 2.604 %, R squared 0.941",> 50 µM
same,EC90,"[2]; Zika virus, Vero C1008, Baseline response 0 %, Hill slope 2.014, Maximum measured 45.209 %, Maximum response 100 %, Minimum measured -1.87 %, R squared 0.776",> 50 µM
same,EC50,[2]; vero c1008,> 50 µM and 5.7 µM
same,EC50,"[3]; Zika virus, Vero C1008",> 50 µM
same,EC90,"[3]; Zika virus, Vero C1008, Maximum measured -0.394 %, Minimum measured -3.218 %",> 50 µM
same,EC50,[4]; VeroE6/TMPRSS2,> 16.7 µM
same,EC90,"[4]; VeroE6/TMPRSS2, Maximum measured 103.391 %, Minimum measured 35.108 %",> 16.7 µM
O=C1Cc2c(cccc2C(=O)Nc2ccc3c(c2)CNC3)N1,EC50,"[1]; Dengue virus, Vero C1008",> 50 µM
same,EC90,"[1]; Dengue virus, Vero C1008, Maximum measured 146.808 %, Minimum measured 90.834 %",> 50 µM
same,EC50,"[2]; Zika virus, Vero C1008",> 50 µM
same,EC90,"[2]; Zika virus, Vero C1008, Baseline response 0 %, Hill slope 0.131, Maximum measured 3.439 %, Maximum response 100 %, Minimum measured 0.392 %, R squared 0.059",> 50 µM
same,EC50,"[3]; Zika virus, Vero C1008",> 50 µM
same,EC90,"[3]; Zika virus, Vero C1008, Baseline response 0 %, Hill slope 0.284, Maximum measured 8.076 %, Maximum response 100 %, Minimum measured -0.771 %, R squared 0.143",> 50 µM
O=C(Nc1ccc2c(c1)CNC2)c1cccc2[nH]ncc12,EC50,"[1]; Dengue virus, Vero C1008",< 0.391 µM
same,EC90,"[1]; Dengue virus, Vero C1008, Baseline response 0 %, Hill slope 0.492, Maximum measured 128.823 %, Maximum response 100 %, Minimum measured 60.42 %, R squared 0.116",< 0.391 µM
same,EC50,[5]; VeroE6/TMPRSS2,> 50 µM
same,EC90,"[5]; VeroE6/TMPRSS2, Maximum measured 158.189 %, Minimum measured 143.688 %, P-gp concentration 2 uM, P-gp inhibitor Elacidar",> 50 µM
same,EC50,"[3]; Zika virus, Vero C1008",< 0.391 µM
same,EC90,"[3]; Zika virus, Vero C1008, Baseline response 0 %, Hill slope -0.113, Maximum measured 48.96 %, Maximum response 100 %, Minimum measured -6.302 %, R squared 0.011",< 0.391 µM
CCc1nc2c(C(=O)Nc3ccc4c(c3)CNC4)cc(Br)cc2[nH]1,EC50,"[1]; Dengue virus, Vero C1008",> 50 µM
same,EC90,"[1]; Dengue virus, Vero C1008, Maximum measured 122.691 %, Minimum measured 98.084 %",> 50 µM
same,EC50,"[3]; Zika virus, Vero C1008",> 50 µM
same,EC90,"[3]; Zika virus, Vero C1008, Baseline response 0 %, Hill slope 0.303, Maximum measured 9.479 %, Maximum response 100 %, Minimum measured 2.16 %, R squared 0.852",> 50 µM
same,EC50,[4]; VeroE6/TMPRSS2,> 5.56 µM
same,EC90,"[4]; VeroE6/TMPRSS2, Baseline response 0 %, Hill slope 0.058, Maximum measured 88.326 %, Maximum response 100 %, Minimum measured 53.216 %, R squared 0.024",> 5.56 µM
N#C[C@H](Nc1ccc2c(c1)CNC2)c1cc(Cl)cc2[nH]ncc12,EC50,"[1]; Dengue virus, Vero C1008",> 50 µM
same,EC90,"[1]; Dengue virus, Vero C1008, Maximum measured 117.716 %, Minimum measured 103.927 %",> 50 µM
same,EC90,"[1]; Dengue virus, Vero C1008, Maximum measured 161.231 %, Minimum measured 110.618 %",> 50 µM
same,EC50,"[3]; Zika virus, Vero C1008",42.5 µM
same,EC90,"[3]; Zika virus, Vero C1008, Baseline response 0 %, Hill slope 4.778, Maximum measured 68.413 %, Maximum response 100 %, Minimum measured -0.525 %, R squared 0.993",> 50 µM
same,EC90,"[3]; Zika virus, Vero C1008, Maximum measured -1.389 %, Minimum measured -3.372 %",> 50 µM
same,EC50,[3]; vero c1008,> 50 µM
same,EC50,[4]; VeroE6/TMPRSS2,7.2 µM
same,EC90,"[4]; VeroE6/TMPRSS2, Baseline response 0 %, Hill slope -1.174, Maximum measured 85.278 %, Maximum response 50 %, Minimum measured 14.695 %, R squared 0.497",> 16.7 µM
NCCc1ccc([C@H]2C[C@@H]2c2cc(Cl)cc(NC(=O)OCc3ccccc3)c2)cc1,EC50,"[1]; Dengue virus, Vero C1008",> 3.12 µM
same,EC90,"[1]; Dengue virus, Vero C1008, Maximum measured 120.903 %, Minimum measured 100.357 %",> 3.12 µM
same,EC90,"[1]; Dengue virus, Vero C1008, Maximum measured 221.095 %, Minimum measured 80.639 %",> 6.25 µM
same,EC50,[1]; vero c1008,> 6.25 µM
same,EC50,"[2]; Zika virus, Vero C1008",> 50 µM
same,EC90,"[2]; Zika virus, Vero C1008, Maximum measured 6.997 %, Minimum measured -5.737 %",> 50 µM
same,EC50,"[3]; Zika virus, Vero C1008",> 50 µM
same,EC90,"[3]; Zika virus, Vero C1008, Maximum measured 1.279 %, Minimum measured -5.481 %",> 50 µM
